Several values for one entry are separate records, joined by “and”; a condition that tells them apart may be missing. Equal values may be shown once. Where a SMILES comes first, the peptide text is derived from it.
Legend:
HaCat cell line = assay: In vitro HaCat cytotoxicity (MTT); assay type: cell-based, human; conditions: 21 h exposure, OD570, relative to untreated control
Protocol: The HaCat cell line (Cellonex, South Africa) was cultured in Dulbecco’s Modified Eagle Medium (DMEM) supplemented with 10% heat-inactivated fetal calf serum (FCS) and 1% antibiotic-antimycotic (Abs) and maintained at 5–10% CO2, 37 °C, 95% humidity. For cytotoxicity screening, 5.56 × 10^4 cells/mL were plated in a 96-well plate. After 24 h incubation, the cells are initially exposed to each peptide at a concentration of 256 μg/mL or 0.1% Triton-X-100 as the control for 21 h. If cytotoxicity was observed, at a level of significance of p < 0.0001 compared with the untreated control after 21 h, a dose-response assay was undertaken. Cell viability was determined by adding 10% 3-(4,5-dimethyl-2-thiazolyl)-2,5-diphenyl-2H-tetrazolium bromide (MTT) (1 mg/mL), to each well and after a further 3 h incubation the media was discarded, and the formazan crystals dissolved by adding 25% DMSO in ethanol. The absorbance was measured at OD570 by using the FLUOstar Omega multidetection microplate reader (BMG Labtech). Percentage cell viability was calculated relative to the untreated control. The LC50 was defined as the concentration of AMP treatment that results in 50% lethality of HaCat cells and was determined from the dose-response curves.

E. coli LEC001 = assay: microbe, parasite or virus in culture; assay type: cell-based, Escherichia coli
Procedure, shortened: (§1)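 Peptides 128→2 μg/mL, 2-fold series; inoculum ~5 × 10^5 CFU/mL from overnight culture (OD600 0.01, mixed 1:1). MHB non-cation-adjusted for bacteria, RPMI 1640 + 2% glucose for fungi. 37 °C, 20 h, OD600. MIC50/MIC90 at 50%/90% inhibition; n ≥ 3.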

E. coli NCTC 12923 = assay: microbe, parasite or virus in culture; assay type: cell-based, Escherichia coli
Procedure, shortened: as §1

A. baumannii AYE = assay: microbe, parasite or virus in culture; assay type: cell-based, Acinetobacter baumannii
Procedure, shortened: as §1

A. baumannii ATCC 17978 = assay: microbe, parasite or virus in culture; assay type: cell-based, Acinetobacter baumannii
Procedure, shortened: as §1

C. glabrata NCPF 8018 = assay: microbe, parasite or virus in culture; assay type: cell-based
Procedure, shortened: as §1

C. albicans NCPF 3281 = assay: microbe, parasite or virus in culture; assay type: cell-based
Procedure, shortened: as §1

C. krusei NCPF 3876 = assay: microbe, parasite or virus in culture; assay type: cell-based
Procedure, shortened: as §1

[1] = test system: C. parapsilosis NCPF 3209; assay: microbe, parasite or virus in culture; assay type: cell-based
Procedure, shortened: as §1

C. tropicalis NCPF 8760 = assay: microbe, parasite or virus in culture; assay type: cell-based
Procedure, shortened: as §1

K. pneumoniae NCTC 13368 = assay: microbe, parasite or virus in culture; assay type: cell-based, Klebsiella pneumoniae
Procedure, shortened: as §1

K. pneumoniae M6 = assay: microbe, parasite or virus in culture; assay type: cell-based, Klebsiella pneumoniae
Procedure, shortened: as §1

S. aureus (MRSA) USA300 = assay: microbe, parasite or virus in culture; assay type: cell-based, Staphylococcus aureus
Procedure, shortened: as §1

[2] = test system: S. aureus (MRSA) NCTC 13616; assay: microbe, parasite or virus in culture; assay type: cell-based, Staphylococcus aureus
Procedure, shortened: as §1

[3] = test system: S. aureus (MSSA) ATCC 9144; assay: microbe, parasite or virus in culture; assay type: cell-based, Staphylococcus aureus
Procedure, shortened: as §1

P. aeruginosa NCTC 13437 = assay: microbe, parasite or virus in culture; assay type: cell-based, Pseudomonas aeruginosa
Procedure, shortened: as §1

C. auris TDG 1912 = assay: microbe, parasite or virus in culture; assay type: cell-based, Candida auris
Procedure, shortened: as §1

S. aureus (MRSA) 1199B = assay: microbe, parasite or virus in culture; assay type: cell-based, Staphylococcus aureus; conditions: S. aureus (MRSA) 1199B (R); shown in µM
Procedure, shortened: as §1

P. aeruginosa PAO1 = assay: microbe, parasite or virus in culture; assay type: cell-based, Pseudomonas aeruginosa; conditions: P. aeruginosa PAO1 (S); shown in µM
Procedure, shortened: as §1

human erythrocytes = assay: In vitro hemolytic activity; assay type: cell-based; conditions: human erythrocytes in PBS, 1 h, 37 °C, OD550; from dose response curves
Protocol: Potential erythrocyte hemolysis was tested by incubating serial dilutions of the AMPs in PBS with freshly collected erythrocytes at a ratio of 1:1 in 96-well polypropylene V-shape plates for 1 h at 37 °C. Control wells were treated with 0.1% Triton-X-100 to ensure complete lysis or PBS-only to represent no lysis. The erythrocytes were collected by centrifugation and the OD550 of the supernatant was measured using a plate reader. The percentage hemolysis was calculated as [drawing 1] 1 where Apeptide is the absorbance value of erythrocytes exposed to a known peptide concentration, Agrowth control is the absorbance of erythrocytes exposed to 0.1% Triton-X-100 and Ablank is the absorbance of erythrocytes exposed to the PBS. The concentrations at which a peptide caused 10% (HC10) and 50% (HC50) hemolysis was determined from the dose response curves.

[4] = C. glabrata NCPF 8018, shown in µM
[5] = C. albicans NCPF 3281, shown in µM
[6] = C. krusei NCPF 3876, shown in µM
[7] = C. parapsilosis NCPF 3209, shown in µM
[8] = C. tropicalis NCPF 8760, shown in µM

CC[C@H](C)[C@H](NC(=O)[C@H](C)NC(=O)[C@H](Cc1c[nH]cn1)NC(=O)[C@@H]1CCCN1C(=O)[C@@H](NC(=O)[C@H](CC(C)C)NC(=O)[C@H](CO)NC(=O)[C@H](Cc1ccccc1)NC(=O)[C@H](CC(C)C)NC(=O)[C@@H](N)Cc1ccccc1)[C@@H](C)CC)C(=O)NCC(=O)NCC(=O)N[C@@H](CC(C)C)C(=O)N[C@H](C(=O)N[C@@H](CO)C(=O)N[C@@H](C)C(=O)N[C@@H](Cc1ccccc1)C(=O)N[C@@H](CCCCN)C(=O)O)[C@@H](C)CC [AamAP1]
% HaCat cell death at initial screening (256μg/mL) ± SD (HaCat cell line): 44.3 ±20.2%

CC[C@H](C)[C@H](NC(=O)[C@H](CCCCN)NC(=O)[C@H](CC(C)C)NC(=O)[C@H](C)NC(=O)[C@H](C)NC(=O)[C@H](CCCCN)NC(=O)[C@H](CC(C)C)NC(=O)[C@H](C)NC(=O)[C@H](CCCCN)NC(=O)CNC(=O)[C@H](CC(C)C)NC(=O)[C@H](Cc1ccccc1)NC(=O)[C@H](CO)NC(=O)CNC(=O)[C@H](Cc1ccccc1)NC(=O)CN)C(=O)NCC(=O)N[C@@H](C)C(=O)N[C@@H](CC(N)=O)C(=O)N[C@H](C(=O)N[C@@H](CC(C)C)C(=O)NCC(=O)NCC(=O)N[C@@H](C)C(=O)N1CCC[C@H]1C(=O)N[C@@H](CCC(N)=O)C(=O)N[C@@H](CCC(N)=O)C(=O)O)C(C)C [CPF-P3] (H-GFGSFLGKALKAALKIGANVLGGAPQQ-OH)
Modal MIC (E. coli LEC001; LEC001, 20 h): 2.9 µM
Modal MIC (E. coli NCTC 12923; NCTC 12923, 20 h): 2.9 µM
Modal MIC (A. baumannii AYE; AYE, 20 h): 2.9 µM
Modal MIC (A. baumannii ATCC 17978; ATCC 17978, 20 h): 1.5 µM
Modal MIC50 (C. glabrata NCPF 8018; NCPF 8018, 20 h): > 47 µM
Modal MIC90 (C. glabrata NCPF 8018; NCPF 8018, 20 h): > 47 µM
Modal MIC50 (C. albicans NCPF 3281; NCPF 3281, 20 h): > 47 µM
Modal MIC90 (C. albicans NCPF 3281; NCPF 3281, 20 h): > 47 µM
Modal MIC50 (C. krusei NCPF 3876; NCPF 3876, 20 h): 23.5 µM
Modal MIC90 (C. krusei NCPF 3876; NCPF 3876, 20 h): 23.5 µM
Modal MIC50 ([1]; NCPF 3209, 20 h): > 47 µM
Modal MIC90 ([1]; NCPF 3209, 20 h): > 47 µM
Modal MIC50 (C. tropicalis NCPF 8760; NCPF 8760, 20 h): 2.9 µM
Modal MIC90 (C. tropicalis NCPF 8760; NCPF 8760, 20 h): 5.8 µM
% HaCat cell death at initial screening (256μg/mL) ± SD (HaCat cell line): 39.9 ±12.3% and 39.9%
Modal MIC (K. pneumoniae NCTC 13368; NCTC 13368, 20 h): 11.8 µM
Modal MIC (K. pneumoniae M6; M6, 20 h): 11.8 µM
Modal MIC (S. aureus (MRSA) USA300; USA300, 20 h): 2.9 µM
Modal MIC ([2]; NCTC 13616, 20 h): 1.5 µM
Modal MIC ([3]; ATCC 9144, 20 h): 1.5 µM
Modal MIC (P. aeruginosa NCTC 13437; NCTC 13437, 20 h): 23.5 µM
Modal MIC50 (C. auris TDG 1912; TDG 1912, 20 h): > 47 µM
Modal MIC90 (C. auris TDG 1912; TDG 1912, 20 h): > 47 µM

CC[C@H](C)[C@H](NC(=O)[C@H](Cc1c[nH]c2ccccc12)NC(=O)[C@H](CC(=O)O)NC(=O)[C@H](Cc1c[nH]c2ccccc12)NC(=O)[C@@H](NC(=O)[C@H](CCCCN)NC(=O)CN)C(C)C)C(=O)N[C@@H](CCCCN)C(=O)N[C@@H](CO)C(=O)N[C@H](C(=O)N[C@@H](C)C(=O)N[C@@H](CCCCN)C(=O)N[C@@H](CCCCN)C(=O)N[C@@H](CC(C)C)C(=O)N[C@@H](Cc1c[nH]c2ccccc12)C(=O)N[C@@H](CC(N)=O)C(N)=O)[C@@H](C)O [Opis16a] (H-GKVWDWIKSTAKKLWN-NH2)
Modal MIC (E. coli LEC001; E. coli LEC001 (R), shown in µM): 2 µM
Modal MIC (E. coli NCTC 12923; E. coli NCTC 12923 (S), shown in µM): 2 µM
Modal MIC (A. baumannii AYE; A. baumannii AYE (R), shown in µM): 1 µM
Modal MIC (A. baumannii ATCC 17978; A. baumannii ATCC 17978 (S), shown in µM): 1 µM
Modal MIC50 (C. glabrata NCPF 8018; [4]): 64.7 µM
Modal MIC90 (C. glabrata NCPF 8018; [4]): 64.7 µM
Modal MIC50 (C. albicans NCPF 3281; [5]): 32.4 µM
Modal MIC90 (C. albicans NCPF 3281; [5]): 64.7 µM
Modal MIC50 (C. krusei NCPF 3876; [6]): 16.2 µM
Modal MIC90 (C. krusei NCPF 3876; [6]): 16.2 µM
Modal MIC50 [1, 7]: 32.4 µM
Modal MIC90 [1, 7]: 64.7 µM
Modal MIC50 (C. tropicalis NCPF 8760; [8]): 4 µM
Modal MIC90 (C. tropicalis NCPF 8760; [8]): 4 µM
Modal MIC (K. pneumoniae NCTC 13368; K. pneumoniae NCTC 13368 (R), shown in µM): 8.1 µM
Modal MIC (K. pneumoniae M6; K. pneumoniae M6 (S), shown in µM): 4 µM
Modal MIC (S. aureus (MRSA) USA300; S. aureus (MRSA) USA300 (R), shown in µM): 4 µM
Modal MIC ([2]; S. aureus (MRSA) NCTC 13616 (R), shown in µM): 2 µM
Modal MIC (S. aureus (MRSA) 1199B): 2 µM
Modal MIC ([3]; S. aureus (MSSA) ATCC 9144 (S), shown in µM): 1 µM
Modal MIC (P. aeruginosa NCTC 13437; P. aeruginosa NCTC 13437 (R), shown in µM): 16.2 µM
Modal MIC (P. aeruginosa PAO1): 64.7 µM
HC10 (concentration causing 10% hemolysis) (human erythrocytes): 155 µg/mL
HC50 (concentration causing 50% hemolysis) (human erythrocytes): > 256 µg/mL
Modal MIC50 (C. auris TDG 1912; C. auris TDG 1912, 50% growth inhibition, RPMI 1640 + 2% glucose, 37 °C, 20 h, OD600): > 128 µg/mL
Modal MIC90 (C. auris TDG 1912; C. auris TDG 1912, 90% growth inhibition, RPMI 1640 + 2% glucose, 37 °C, 20 h, OD600): > 128 µg/mL
Modal MIC50 (C. auris TDG 1912; C. auris TDG 1912, shown in µM): > 64.7 µM
Modal MIC90 (C. auris TDG 1912; C. auris TDG 1912, shown in µM): > 64.7 µM

Source: paper PMC11191095, “QSAR Reveals Decreased Lipophilicity of Polar Residues Determines the Selectivity of Antimicrobial Peptide Activity” (ACS Omega, 2024)
